Test results published in patent US8143393B2, “Substituted 4-amino-pyrrolotriazine derivatives useful for treating hyper-proliferative disorders and diseases associated with angiogenesis” (Bayer HealthCare LLC, priority 2005, dated 2012).

Target: T1, FGFR-1 (Homo sapiens, UniProt P11362)
T1 construct: GST; made in house
Assay: FGFR-1 TR-FRET biochemical assay
Conditions: 0.6 uM ATP, 5 nM FGFR1-GST; bounds given in nM
Outline: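 In this LANCE time-resolved FRET format, compounds at final 10 μM–0.128 nM (1% DMSO, 1:5 series) were preincubated before enzyme start. Reactions ran for one hour at room temperature with 0.6 uM ATP, 25 nM biotinylated poly GT and 5 nM GST-tagged FGFR1. Inhibition was calculated from the 665/615 nm ratio minus the ATP-free background.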

T1 sequence (P11362 22-822): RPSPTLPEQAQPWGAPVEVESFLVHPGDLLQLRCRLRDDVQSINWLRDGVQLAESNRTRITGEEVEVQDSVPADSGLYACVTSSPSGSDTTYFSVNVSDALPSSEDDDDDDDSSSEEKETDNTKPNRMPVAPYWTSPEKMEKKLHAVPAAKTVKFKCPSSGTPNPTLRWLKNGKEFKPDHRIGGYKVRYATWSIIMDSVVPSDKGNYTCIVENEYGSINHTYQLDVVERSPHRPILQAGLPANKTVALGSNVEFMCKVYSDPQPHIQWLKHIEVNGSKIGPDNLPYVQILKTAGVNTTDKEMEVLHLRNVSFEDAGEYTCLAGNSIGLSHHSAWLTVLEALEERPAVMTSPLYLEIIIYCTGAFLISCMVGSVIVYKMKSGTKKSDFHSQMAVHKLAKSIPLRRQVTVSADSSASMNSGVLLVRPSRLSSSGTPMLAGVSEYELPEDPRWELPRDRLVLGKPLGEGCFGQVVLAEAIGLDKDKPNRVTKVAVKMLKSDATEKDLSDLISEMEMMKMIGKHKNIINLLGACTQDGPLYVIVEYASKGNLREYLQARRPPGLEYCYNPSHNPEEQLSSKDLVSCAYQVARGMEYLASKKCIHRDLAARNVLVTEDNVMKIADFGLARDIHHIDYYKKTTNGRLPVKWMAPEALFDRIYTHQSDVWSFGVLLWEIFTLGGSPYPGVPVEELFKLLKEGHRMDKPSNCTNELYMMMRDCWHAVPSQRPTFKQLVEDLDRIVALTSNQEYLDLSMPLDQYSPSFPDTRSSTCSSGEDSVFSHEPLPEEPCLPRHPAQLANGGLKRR

Compound	IC50 [nM]
Nc1ncnn2c(CCN3CCOCC3)cc(-c3cc(F)c(NC(=O)Nc4cc(C(F)(F)F)ccc4F)cc3F)c12 [Example 211, N-{4-[4-amino-7-(2-morpholin-4-ylethyl)pyrrolo[2,1-f][1,2,4]triazin-5-yl]-2,5-difluorophenyl}-N′-[2-fluoro-5-(trifluoromethyl)phenyl]urea]	10 to 100
Nc1ncnn2c(CCN3CCOCC3)cc(-c3ccc(NC(=O)Nc4cc(C(F)(F)F)ccc4F)c(F)c3)c12 [Example 212, N-{4-[4-amino-7-(2-morpholin-4-ylethyl)pyrrolo[2,1-f][1,2,4]triazin-5-yl]-2-fluorophenyl}-N′-[2-fluoro-5-(trifluoromethyl)phenyl]urea]	10 to 100
CN1CCN(CCc2cc(-c3ccc(NC(=O)Nc4cc(C(F)(F)F)ccc4F)c(F)c3)c3c(N)ncnn23)CC1 [Example 214, N-(4-{4-amino-7-[2-(4-methylpiperazin-1-yl)ethyl]pyrrolo[2,1-f][1,2,4]triazin-5-yl}-2-fluorophenyl)-N′-[2-fluoro-5-(trifluoromethyl)phenyl]urea]	< 10
Nc1ncnn2c(CCCN3CCOCC3)cc(-c3ccc(NC(=O)Nc4cc(C(F)(F)F)ccc4Cl)c(F)c3)c12 [Example 217, N-{4-[4-amino-7-(3-morpholin-4-ylpropyl)pyrrolo[2,1-f][1,2,4]triazin-5-yl]-2-fluorophenyl}-N′-[2-chloro-5-(trifluoromethyl)phenyl]urea]	10 to 100
Cc1cc(-c2cc(CCCN3CCOCC3)n3ncnc(N)c23)ccc1NC(=O)Nc1cc(C(F)(F)F)ccc1F [Example 221, N-{4-[4-amino-7-(3-morpholin-4-ylpropyl)pyrrolo[2,1-f][1,2,4]triazin-5-yl]-2-methylphenyl}-N′-[2-fluoro-5-(trifluoromethyl)phenyl]urea]	< 10

The next lines start with the values.

IC50 [nM]	Compound
10 to 100	CC(C)(C)OC(=O)N1CCC(c2cc(-c3ccc(NC(=O)Nc4cc(C(F)(F)F)ccn4)c(F)c3)c3c(N)ncnn23)C1 (centres unmarked) [Example 208, tert-butyl 3-{4-amino-5-[3-fluoro-4-({[4-(trifluoromethyl)pyridin-2-yl]carbamoyl}amino)phenyl]pyrrolo[2,1-f][1,2,4]triazin-7-yl}pyrrolidine-1-carboxylate]
10 to 100	CNC(=O)N1CCC(c2cc(-c3ccc(NC(=O)Nc4cc(C(F)(F)F)ccc4F)c(F)c3)c3c(N)ncnn23)CC1 [Example 209, 4-{4-amino-5-[3-fluoro-4-({[2-fluoro-5-(trifluoromethyl)phenyl]carbamoyl}amino)phenyl]pyrrolo[2,1-f][1,2,4]triazin-7-yl}-N-methylpiperidine-1-carboxamide]
10 to 100	COC[C@@H]1CCCN1CCc1cc(-c2ccc(NC(=O)Nc3cc(C(F)(F)F)ccc3F)c(F)c2)c2c(N)ncnn12 [Example 215, N-[4-(4-amino-7-{2-[2-(methoxymethyl)pyrrolidin-1-yl]ethyl}pyrrolo-[2,1-f][1,2,4]triazin-5-yl)-2-fluorophenyl]-N′-[2-fluoro-5-(trifluoromethyl)phenyl]urea]
10 to 100	Nc1ncnn2c(CCN3CCCC3)cc(-c3ccc(NC(=O)Nc4cc(C(F)(F)F)ccc4F)c(F)c3)c12 [Example 216, N-{4-[4-amino-7-(2-pyrrolidin-1-ylethyl)pyrrolo[2,1-f][1,2,4]triazin-5-yl]-2-fluorophenyl}-N′-[2-fluoro-5-(trifluoromethyl)phenyl]urea]
< 10	CC(=O)N1CCC(c2cc(-c3ccc(NC(=O)Nc4cc(C(F)(F)F)ccc4F)c(Cl)c3)c3c(N)ncnn23)CC1 [Example 219, N-{4-[7-(1-acetylpiperidin-4-yl)-4-aminopyrrolo[2,1-f][1,2,4]triazin-5-yl]-2-chlorophenyl}-N′-[2-fluoro-5-(trifluoromethyl)phenyl]urea]
< 10	Nc1ncnn2c(CCO)cc(-c3ccc(NC(=O)Nc4cc(C(F)(F)F)ccc4F)c(F)c3)c12 [Example 220, N-{4-[4-amino-7-(2-hydroxyethyl)pyrrolo[2,1-f][1,2,4]triazin-5-yl]-2-fluorophenyl}-N′-[2-fluoro-5-(trifluoromethyl)phenyl]urea]
